Organism: Rattus norvegicus
Experiment: Open TG-GATES - Regimen: Daily Repeat
Format: toxicity, organism-based, Sprague-Dawley
Parameters: regimen Daily Repeat, gender Male, age 6 weeks
Settings: in vivo, po, 100 mg/kg, route gavage, dose level Low; for APTT / Bas / Eos / Fbg / Hb / Ht / Lym / MCH / MCHC / MCV / Mono / Neu / PT / Plat / RBC / Ret / WBC: tissue Blood; for KIDNEY_L / KIDNEY_R / KIDNEY_TOTAL: tissue Kidney; for LIVER: tissue Liver; for A/G / ALP / ALT / AST / BUN / CRE / Ca / Cl / DBIL / GLC / IP / K / LDH / Na / PL / RALB / TBIL / TC / TG / TP / gamma-GTP: tissue Plasma

Compound: CCCCNC(=O)NS(=O)(=O)c1ccc(C)cc1 [TOLBUTAMIDE]
- TERMINAL_BW (72 h, time 3 day): 233.9 g
- APTT (72 h, time 3 day): 20.4 s
- Bas (72 h, time 3 day): 0.2%
- Eos (72 h, time 3 day): 1.2%
- Fbg (72 h, time 3 day): 283.2 mg/dL
- Hb (72 h, time 3 day): 13.7 g/dL
- Ht (72 h, time 3 day): 42%
- Lym (72 h, time 3 day): 80.2%
- MCH (72 h, time 3 day): 20.2 pg
- MCHC (72 h, time 3 day): 32.7%
- MCV (72 h, time 3 day): 61.9 fL
- Mono (72 h, time 3 day): 2.2%
- Neu (72 h, time 3 day): 15.8%
- PT (72 h, time 3 day): 13.2 s
- Plat (72 h, time 3 day): 118.8 x10_4/uL
- RBC (72 h, time 3 day): 680.4 x10_4/ul
- Ret (72 h, time 3 day): 5.8%
- WBC (72 h, time 3 day): 98.1 x10_2/uL
- KIDNEY_L (72 h, time 3 day): 1 g
- KIDNEY_R (72 h, time 3 day): 1 g
- KIDNEY_TOTAL (72 h, time 3 day): 2 g
- LIVER (72 h, time 3 day): 11.3 g
- A/G (72 h, time 3 day): 0.9
- ALP (72 h, time 3 day): 1905.6 IU/L
- ALT (72 h, time 3 day): 46.2 IU/L
- AST (72 h, time 3 day): 73.8 IU/L
- BUN (72 h, time 3 day): 15 mg/dL
- CRE (72 h, time 3 day): 0.2 mg/dL
- Ca (72 h, time 3 day): 11.1 mg/dL
- Cl (72 h, time 3 day): 104.6 meq/L
- DBIL (72 h, time 3 day): 0.01 mg/dL
- GLC (72 h, time 3 day): 180.4 mg/dL
- IP (72 h, time 3 day): 8.4 mg/dL
- K (72 h, time 3 day): 3.9 meq/L
- LDH (72 h, time 3 day): 68.8 IU/L
- Na (72 h, time 3 day): 142.6 meq/L
- PL (72 h, time 3 day): 156.4 mg/dL
- RALB (72 h, time 3 day): 2.6 g/dL
- TBIL (72 h, time 3 day): 0.058 mg/dL
- TC (72 h, time 3 day): 77 mg/dL
- TG (72 h, time 3 day): 99.4 mg/dL
- TP (72 h, time 3 day): 5.5 g/dL
- gamma-GTP (72 h, time 3 day): 1 IU/L
- TERMINAL_BW ([…], time 7 day): 273.5 g
- TERMINAL_BW ([…], time 14 day): 313.3 g
- TERMINAL_BW ([…], time 28 day): 400.3 g
- APTT ([…], time 7 day): 16.9 s
- Bas ([…], time 7 day): 0%
- Eos ([…], time 7 day): 1%
- Fbg ([…], time 7 day): 303.2 mg/dL
- Hb ([…], time 7 day): 13.6 g/dL
- Ht ([…], time 7 day): 40.9%
- Lym ([…], time 7 day): 74.4%
- MCH ([…], time 7 day): 20.4 pg
- MCHC ([…], time 7 day): 33.2%
- MCV ([…], time 7 day): 61.4 fL
- Mono ([…], time 7 day): 2%
- Neu ([…], time 7 day): 21.8%
- PT ([…], time 7 day): 12.5 s
- Plat ([…], time 7 day): 130 x10_4/uL
- RBC ([…], time 7 day): 667 x10_4/ul
- Ret ([…], time 7 day): 5.4%
- WBC ([…], time 7 day): 123.8 x10_2/uL
- APTT ([…], time 14 day): 18.6 s
- Bas ([…], time 14 day): 0.2%
- Eos ([…], time 14 day): 0.8%
- Fbg ([…], time 14 day): 284.2 mg/dL
- Hb ([…], time 14 day): 14.2 g/dL
- Ht ([…], time 14 day): 43.5%
- Lym ([…], time 14 day): 81%
- MCH ([…], time 14 day): 19.5 pg
- MCHC ([…], time 14 day): 32.6%
- MCV ([…], time 14 day): 60 fL
- Mono ([…], time 14 day): 1.8%
- Neu ([…], time 14 day): 15.8%
- PT ([…], time 14 day): 13.2 s
- Plat ([…], time 14 day): 120.7 x10_4/uL
- RBC ([…], time 14 day): 726.6 x10_4/ul
- Ret ([…], time 14 day): 4.1%
- WBC ([…], time 14 day): 100.3 x10_2/uL
- APTT ([…], time 28 day): 17.5 s
- Bas ([…], time 28 day): 0.6%
- Eos ([…], time 28 day): 1.2%
- Fbg ([…], time 28 day): 287.2 mg/dL
- Hb ([…], time 28 day): 15.6 g/dL
- Ht ([…], time 28 day): 46.6%
- Lym ([…], time 28 day): 80.4%
- MCH ([…], time 28 day): 18.8 pg
- MCHC ([…], time 28 day): 33.5%
- MCV ([…], time 28 day): 56.1 fL
- Mono ([…], time 28 day): 2.4%
- Neu ([…], time 28 day): 14.8%
- PT ([…], time 28 day): 13.5 s
- Plat ([…], time 28 day): 102.7 x10_4/uL
- RBC ([…], time 28 day): 831.6 x10_4/ul
- Ret ([…], time 28 day): 2.4%
- WBC ([…], time 28 day): 116.4 x10_2/uL
- KIDNEY_L ([…], time 7 day): 1.2 g
- KIDNEY_R ([…], time 7 day): 1.2 g
- KIDNEY_TOTAL ([…], time 7 day): 2.3 g
- KIDNEY_L ([…], time 14 day): 1.2 g
- KIDNEY_R ([…], time 14 day): 1.2 g
- KIDNEY_TOTAL ([…], time 14 day): 2.4 g
- KIDNEY_L ([…], time 28 day): 1.3 g
- KIDNEY_R ([…], time 28 day): 1.3 g
- KIDNEY_TOTAL ([…], time 28 day): 2.7 g
- LIVER ([…], time 7 day): 12.8 g
- LIVER ([…], time 14 day): 13.1 g
- LIVER ([…], time 28 day): 15.8 g
- A/G ([…], time 7 day): 0.9
- ALP ([…], time 7 day): 1801.2 IU/L
- ALT ([…], time 7 day): 43.8 IU/L
- AST ([…], time 7 day): 68 IU/L
- BUN ([…], time 7 day): 17.6 mg/dL
- CRE ([…], time 7 day): 0.2 mg/dL
- Ca ([…], time 7 day): 10.9 mg/dL
- Cl ([…], time 7 day): 104.4 meq/L
- DBIL ([…], time 7 day): 0.01 mg/dL
- GLC ([…], time 7 day): 197.4 mg/dL
- IP ([…], time 7 day): 7.9 mg/dL
- K ([…], time 7 day): 4.1 meq/L
- LDH ([…], time 7 day): 55.6 IU/L
- Na ([…], time 7 day): 141.8 meq/L
- PL ([…], time 7 day): 165.2 mg/dL
- RALB ([…], time 7 day): 2.6 g/dL
- TBIL ([…], time 7 day): 0.056 mg/dL
- TC ([…], time 7 day): 79.6 mg/dL
- TG ([…], time 7 day): 138.4 mg/dL
- TP ([…], time 7 day): 5.5 g/dL
- gamma-GTP ([…], time 7 day): 1.2 IU/L
- A/G ([…], time 14 day): 0.8
- ALP ([…], time 14 day): 1429.8 IU/L
- ALT ([…], time 14 day): 37.2 IU/L
- AST ([…], time 14 day): 67.4 IU/L
- BUN ([…], time 14 day): 16.8 mg/dL
- CRE ([…], time 14 day): 0.2 mg/dL
- Ca ([…], time 14 day): 10.7 mg/dL
- Cl ([…], time 14 day): 104.6 meq/L
- DBIL ([…], time 14 day): 0.014 mg/dL
- GLC ([…], time 14 day): 196.2 mg/dL
- IP ([…], time 14 day): 7.1 mg/dL
- K ([…], time 14 day): 3.8 meq/L
- LDH ([…], time 14 day): 60.8 IU/L
- Na ([…], time 14 day): 143.2 meq/L
- PL ([…], time 14 day): 135 mg/dL
- RALB ([…], time 14 day): 2.6 g/dL
- TBIL ([…], time 14 day): 0.062 mg/dL
- TC ([…], time 14 day): 61.6 mg/dL
- TG ([…], time 14 day): 141.6 mg/dL
- TP ([…], time 14 day): 5.7 g/dL
- gamma-GTP ([…], time 14 day): 1.2 IU/L
- A/G ([…], time 28 day): 0.8
- ALP ([…], time 28 day): 1233.8 IU/L
- ALT ([…], time 28 day): 38 IU/L
- AST ([…], time 28 day): 63.8 IU/L
- BUN ([…], time 28 day): 17.8 mg/dL
- CRE ([…], time 28 day): 0.3 mg/dL
- Ca ([…], time 28 day): 10.7 mg/dL
- Cl ([…], time 28 day): 105.2 meq/L
- DBIL ([…], time 28 day): 0.012 mg/dL
- GLC ([…], time 28 day): 188.6 mg/dL
- IP ([…], time 28 day): 6.7 mg/dL
- K ([…], time 28 day): 3.9 meq/L
- LDH ([…], time 28 day): 49.8 IU/L
- Na ([…], time 28 day): 143 meq/L
- PL ([…], time 28 day): 151.2 mg/dL
- RALB ([…], time 28 day): 2.7 g/dL
- TBIL ([…], time 28 day): 0.058 mg/dL
- TC ([…], time 28 day): 68.8 mg/dL
- TG ([…], time 28 day): 174.6 mg/dL
- TP ([…], time 28 day): 6.2 g/dL
- gamma-GTP ([…], time 28 day): 1 IU/L

Reference: ChEMBL document CHEMBL3885861, “Open TG-GATES”
